The record followed here is patent US9938258B2 (Karyopharm Therapeutics Inc., priority 2012, dated 2018).

The term IC50 denotes the point on the concentration scale where inhibition reaches its midpoint.

Assay [1] concerns MS751 cells. Put plainly: MTT cell proliferation assay, MS751. The conditions noted are these: Homo sapiens. The class given is cell-based, human. Put shortly:
(§1)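 Absorbance at 490 nm of solubilized formazan, produced during roughly 4 h MTT incubation, gave percent inhibition relative to negative control. Compounds spanned eight concentrations between 1 nM and 30 μM on cells plated overnight at 5,000-10,000 per well.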
In general terms: Tetrazolium assays rely on reduction of a dye to a coloured formazan, in cell work by metabolically active cells.

In assay [2] the test system is Z138 cells. Put plainly: MTT cell proliferation assay, Z138. The assay is classed as cell-based. The conditions noted are these: Homo sapiens. Put shortly:
as §1

Assay [3] relates to 3T3 cells. Put plainly: MTT cell proliferation assay, 3T3. The assay is classed as cell-based, mouse. Particulars: Mus musculus. Put shortly:
as §1

For assay [4], the system named is MDA-MB-468 (triple negative breast) cancer xenograft. The assay is described as follows: MDA-MB-468 mouse xenograft model. The class given is in vivo, CB-17 SCID mice. Particulars: 30 mg/kg QDx5 or 15 mg/kg QDx5 PO for 9 weeks; SCID mice with MDA-MB-468 tumors; versus vehicle. As to the method:
The oncological impact of Compound 116 was tested using a MDA-MB-468 (triple negative breast) cancer xenograft model in CB-17 SCID mice. MDA-MB-468 (ATCC # HTB-102) breast adenocarcinoma cells were obtained from ATCC. These cells were grown in high glucose DMEM medium supplemented with 10% fetal bovine serum, 1% penicillin and streptomycin, and 2 mM L-glutamine. Cells were sub-cultured by dilution at a ratio of 1:4. MDA-MB-468 cells were harvested by trypsinization and counted using a hemocytometer. Cells were resuspended in PBS at a concentration of 4×10^8 cells per mL. Cells were placed on ice and mixed with an equal volume of Matrigel (BD Biosciences CB-40234). This mixture was kept on ice and injected into the left flank of mice in a volume of 0.2 mL, equivalent to 4×10^7 cells per mouse. When the tumors reached a mean size of between 100 and 200 mm^3, mice were randomly and prospectively divided. Tumor bearing mice were treated with vehicle or Compound 116 on M-F (QDx5/week) for 9 weeks. Compound 116 was administered orally (PO) at initial doses of 15 and 30 mg/kg five times a week. Animals' weights and condition were recorded daily, tumors were measured once every two days with micro-calipers, and tumor volume was calculated as (length×width×width)/2.

Assay [5] relates to M24 cell line. The assay is described as follows: MTT cell proliferation assay, M24. The assay is classed as cell-based. The conditions noted are these: Homo sapiens, incubation approximately 64-72 hours. As for the experimental part:
(§2) The MTT cell proliferation assay was used to study the cytotoxic properties of the compounds. The assay was performed according to the method described by Roche Molecular Biochemicals, with minor modifications. The assay is based on the cleavage of the tetrazolium salt, MTT, in the presence of an electron-coupling reagent. The water-insoluble formazan salt produced must be solubilized in an additional step. Cells grown in a 96-well tissue culture plate were incubated with the MTT solution for approximately 4 hours. After this incubation period, a water-insoluble formazan dye formed. After solubilization, the formazan dye was quantitated using a scanning multi-well spectrophotometer (ELISA reader). […] The cells were seeded at 5,000-10,000 cells in each well of 96-well plate in 100 μL of fresh culture medium and were allowed to attach overnight. The stock solutions of the compounds were diluted in 100 μL cell culture medium to obtain eight concentrations of each test compound, ranging from 1 nM to 30 μM. […] All optical densities were measured at 490 nm using a Vmax Kinetic Microplate Reader (Molecular Devices). In most cases, the assay was performed in duplicate and the results were presented as a mean percent inhibition to the negative control±SE. The following formula was used to calculate the percent of inhibition: Inhibition (%)=(1-(ODo/OD)) ×100. […]

Assay [6] concerns U2OS cell line. Put plainly: MTT cell proliferation assay, U2OS. The assay is classed as cell-based. The conditions noted are these: Homo sapiens, incubation approximately 64-72 hours. As to the method:
as §2

Assay [7] relates to MM1S cell line. The assay is described as follows: MTT cell proliferation assay, MM1S. The class given is cell-based. Particulars: Homo sapiens, MM1.S, incubation approximately 64-72 hours. As to the method: (§3) The MTT cell proliferation assay was used to study the cytotoxic properties of the compounds. The assay was performed according to the method described by Roche Molecular Biochemicals, with minor modifications. The assay is based on the cleavage of the tetrazolium salt, MTT, in the presence of an electron-coupling reagent. The water-insoluble formazan salt produced must be solubilized in an additional step. Cells grown in a 96-well tissue culture plate were incubated with the MTT solution for approximately 4 hours. After this incubation period, a water-insoluble formazan dye formed. After solubilization, the formazan dye was quantitated using a scanning multi-well spectrophotometer (ELISA reader). […] The cells were seeded at 5,000-10,000 cells in each well of 96-well plate in 100 μL of fresh culture medium and were allowed to attach overnight. The stock solutions of the compounds were diluted in 100 μL cell culture medium to obtain eight concentrations of each test compound, ranging from 1 nM to 30 μM. […] All optical densities were measured at 490 nm using a Vmax Kinetic Microplate Reader (Molecular Devices). In most cases, the assay was performed in duplicate and the results were presented as a mean percent inhibition to the negative control±SE. The following formula was used to calculate the percent of inhibition: Inhibition (%)=(1-(ODo/OD)) ×100.
(§4) The M24 cell line is derived from human melanoma cells. The U2OS cell line is a human osteosarcoma cell line expressing wild type p53 and Rb, but lacking p16. The MM1S cell line is a multiple myeloma cell line; the parent cell line, MM.1, was established from peripheral blood of a multiple myeloma patient who had become resistant to steroid-based therapy. The RPMI8226 cell line is derived from human B lymphocyte cells. NHDF cells are normal human dermal fibroblast cells. The MRC-5 cell line is derived from normal lung tissue of a fetus. The LN18 cell line is a human malignant glioma cell line. The DU-145 cell line is a human prostate cancer cell line. A549 cells are human adenocarcinomic human alveolar basal epithelial cells. […]

Assay [8] deals with RPMI8226 cell line. Put plainly: MTT cell proliferation assay, RPMI8226. The assay is classed as cell-based. Particulars: Homo sapiens, RPMI-8226, incubation approximately 64-72 hours. As for the experimental part: as §2
Assay [9] deals with NHDF cells. Put plainly: MTT cell proliferation assay, NHDF. The assay is classed as cell-based. The conditions noted are these: Homo sapiens, incubation approximately 64-72 hours. As to the method:
as §2

Assay [10] has as its system HL-60 cells. Put plainly: MTT cell proliferation assay, HL-60. The class given is cell-based. Particulars: Homo sapiens, incubation approximately 64-72 hours. As to the method: as §2
Assay [11] relates to Hep G2 cells. Put plainly: MTT cell proliferation assay, Hep G2. The class given is cell-based. The conditions noted are these: Homo sapiens, HepG2, incubation approximately 64-72 hours. As to the method: as §3
The M24 cell line is derived from human melanoma cells. The U2OS cell line is a human osteosarcoma cell line expressing wild type p53 and Rb, but lacking p16. The MM1S cell line is a multiple myeloma cell line; the parent cell line, MM.1, was established from peripheral blood of a multiple myeloma patient who had become resistant to steroid-based therapy. The RPMI8226 cell line is derived from human B lymphocyte cells. NHDF cells are normal human dermal fibroblast cells. The MRC-5 cell line is derived from normal lung tissue of a fetus. The LN18 cell line is a human malignant glioma cell line. The DU-145 cell line is a human prostate cancer cell line. A549 cells are human adenocarcinomic human alveolar basal epithelial cells. The MOLT4 cell line is a human acute lymphoblastic leukemia cell line. The THP1 cell line is a human leukemic monocytic cell line derived from peripheral blood. The OCIAML5 cell line is a human acute myeloid leukemia cell line. The MDA-MB-231 cell line is a human breast adenocarcinoma cell line. The MDA-MB-468 cell line is a human breast carcinoma cell line. HL-60 cells are human promyelocytic leukemia cells. Hep G2 cells are human hepatocellular carcinoma cells. HEP 3B cells are human hepatocellular carcinoma cells. The DLD-1 cell line is a colorectal adenocarcinoma cell line. The HCT-15 cell line is a human colon carcinoma cell line. The Colo-205 cell line is derived from a human adenocarcinoma of the colon. […]

Assay [12] relates to HEP 3B cells. The assay is described as follows: MTT cell proliferation assay, HEP 3B. The conditions noted are these: Homo sapiens, Hep3B, incubation approximately 64-72 hours. The class given is cell-based. As for the experimental part: as §3, §4
In assay [13] the test system is PAK4 interactors and downstream proteins. The assay is described as follows: Immunoblots of PAK4 interactors and downstream proteins in U2OS cells. The conditions noted are these: 72 hours. The class given is cell-based, human. As for the experimental part: Immunoblots were used to measure the effects of exemplary compounds on protein steady-state levels and phophorylation of PAK4 interactor and downstream proteins. Specifically, U2OS (osteosarcoma) cells were split and plated on day 1. After overnight attachment to the tissue culture plate, cells were treated with either DMSO (0), 37 nM, 111 nM, 333 nM, 1 μM, or 3 μM Compound 246 for 72 hours. Cells were collected, washed and lysed in RIPA buffer. After obtaining the protein concentration by BCA assay, lysates were boiled in loading buffer and run on SDS-PAGE. The gels were transferred to nitrocellulose membranes and blotted with antibodies raised against phosphor-PAK4, PAK4, phophos-beta-catenin, beta-catenin, GEF-H1, phospho-Akt, Akt, phospho-ERK1/2, ERK1/2, phospho-cofilin, cofilin, phospho-histone H3, histone H3, cyclin D1, Mcl-1, Bcl-2, p21, survivin, caspase 8, caspase 3, PARP, and beta-actin (loading control).
In another experiment, U2OS (osteosarcoma) cells were split and plated on day 1. After overnight attachment to the tissue culture plate, cells were treated with DMSO (Ct), 0.5 μM, or 5 μM of Compound 124, 369, 226, 246, or 907 for 72 hours. Cells were collected, washed and lysed in RIPA buffer. After obtaining the protein concentration by BCA assay, lysates were boiled in loading buffer and run on SDS-PAGE. The gels were transferred to nitrocellulose membranes and blotted with antibodies raised against phophos-beta-catenin, cyclin D1, PAK4, phospho-cofilin, and beta-actin (loading control).
Background: A western blot detects proteins with antibodies after separation by electrophoresis.

Counter-ions that a name gives are not always drawn. Like-named read-outs stand apart in the source and are kept apart here. A value given as a limit tells only on which side of the number the result lay.

Regarding `CC(=O)c1ccc(-c2cc(Cl)c3c(c2)CC(CNC(=O)/C=C/c2ccc(N)nc2)O3)s1` (centres unmarked) [Compound 116, (E)-N-((5-(5-acetylthiophen-2-yl)-7-chloro-2,3-dihydrobenzofuran-2-yl)methyl)-3-(6-aminopyridin-3-yl)acrylamide], the 50% inhibitory concentration (IC50) in assay [1] (MS751, MS751 cells, eight concentrations 1 nM to 30 μM, incubation approximately 64-72 hours, read-out: MTT Assay IC50, MS751) was in the range of 100 to 5000 nM; in [2] (Z-138, Z138 cells, eight concentrations 1 nM to 30 μM, incubation approximately 64-72 hours, read-out: MTT Assay IC50, Z138) it was 100 to 5000 nM; in assay [3] (NIH3T3, 3T3 cells, eight concentrations 1 nM to 30 μM, incubation approximately 64-72 hours, read-out: MTT Assay IC50, 3T3), 5000 to 30000 nM. Besides, the mean tumor volume entry in assay [4] was “reduced”.
Regarding `Nc1ccc(/C=C/C(=O)NCC2Cc3cc(-c4ccc(C(=O)N5CCNCC5)cc4)cc(Cl)c3O2)cn1` (centres unmarked) [Compound 246, (E)-3-(6-aminopyridin-3-yl)-N-((7-chloro-5-(4-(piperazine-1-carbonyl)phenyl)-2,3-dihydrobenzofuran-2-yl)methyl)acrylamide dihydrochloride], the half-maximal inhibitory concentration (IC50) in assay [1] (MS751, read-out: MTT Assay IC50, MS751) is under 100 nM; in assay [2] (Z-138, read-out: MTT Assay IC50, Z138) it was under 100 nM; in assay [3] (NIH3T3, read-out: MTT Assay IC50, 3T3), 100 to 5000 nM; in assay [5], 100 to 5000 nM; in assay [6] it was under 100 nM; in assay [7], under 100 nM. The IC50 was 100 to 5000 nM in assay [8]; 100 to 5000 nM in assay [9]; 100 to 5000 nM in assay [10]; 100 to 5000 nM in assay [11]; under 100 nM in [12]. Further, the PAK4 total protein result in assay [13] (37 nM to 3 μM) and in assay [13] (0.5 μM or 5 μM) was “decrease” each time. Besides, the “cleavage of apoptosis markers caspase 3, caspase 8 and PARP” value in [13] (37 nM to 3 μM) is listed as “increases in cleavage”. In addition, the “phosphorylation or total level of PAK4 signaling proteins (Akt, ERK1/2, beta-catenin, cofilin, p21, cyclin D1)” value in assay [13] (37 nM to 3 μM) is on record as “decrease in phosphorylation or the total level”. The “phosphorylation of PAK4 signaling proteins beta-catenin and cofilin” value in [13] (0.5 μM or 5 μM) was “decreases in phosphorylation”.
